In patent US11001587B2, “Substituted indazoles as phosphatidylinositol kinase inhibitors” (CUROVIR AB, priority 2017, dated 2021):
pIC50: −log10 of the molar value.

Assays:
Type in all cases: cell-based
polio virus Sabin 1 = assay: organism not typed; settings: read-out: Polio 1 inhibition capacity (IC50)
coxsackie B4 virus = assay: In vitro CPE assay in mammalian cell culture, B4; settings: Enterovirus B, viral cytopathic effect in mammalian cell culture, read-out: B4 inhibition capacity (IC50)
coxsackie B2 virus = assay: In vitro CPE assay in mammalian cell culture, B2; settings: viral cytopathic effect in mammalian cell culture, read-out: B2 inhibition capacity (IC50)
Enterovirus 68 = assay: In vitro CPE assay in mammalian cell culture, EV68; settings: Enterovirus D, viral cytopathic effect in mammalian cell culture, read-out: EV68 inhibition capacity (IC50)
coxsackie B3 virus = assay: In vitro CPE assay in mammalian cell culture, B3; settings: Enterovirus B, viral cytopathic effect in mammalian cell culture, read-out: B3 inhibition capacity (IC50)
Enterovirus 71 = assay: In vitro CPE assay in mammalian cell culture, EV71; settings: Enterovirus A, viral cytopathic effect in mammalian cell culture, read-out: EV71 inhibition capacity (IC50)
Enterovirus 6 = assay: In vitro CPE assay in mammalian cell culture, EV6; settings: viral cytopathic effect in mammalian cell culture, read-out: EV6 inhibition capacity (IC50)
Enterovirus 30 = assay: In vitro CPE assay in mammalian cell culture, EV30; settings: viral cytopathic effect in mammalian cell culture, read-out: EV30 inhibition capacity (IC50)
coxsackie B1 virus = assay: In vitro CPE assay in mammalian cell culture, B1; settings: viral cytopathic effect in mammalian cell culture, read-out: B1 inhibition capacity (IC50)
coxsackie B5 virus = assay: In vitro CPE assay in mammalian cell culture, B5; settings: viral cytopathic effect in mammalian cell culture, read-out: B5 inhibition capacity (IC50)

Structure (SMILES) | pIC50 (polio virus Sabin 1) | pIC50 (coxsackie B4 virus) | pIC50 (coxsackie B2 virus) | pIC50 (Enterovirus 68) | pIC50 (coxsackie B3 virus) | pIC50 (Enterovirus 71) | pIC50 (Enterovirus 6) | pIC50 (Enterovirus 30) | pIC50 (coxsackie B1 virus) | pIC50 (coxsackie B5 virus)
Cc1cc(NCc2ccc(Cl)cc2)c2nc(C)c(-c3ccc4c(c3)c(C)nn4C)n2n1 [Example 3, N-(4-chlorobenzyl)-3-(1,3-dimethyl-1H-indazol-5-yl)-2,6-dimethylimidazo[1,2-b]pyridazin-8-amine] | > 6.00 | > 6.00 | > 6.00 | > 6.00 | > 6.00 | > 6.00 | > 6.00 | > 6.00 | > 7.00 | 
Cc1nc(NCc2ccc(NS(C)(=O)=O)cc2)n2nc(C)c(-c3ccc4c(c3)c(C)nn4C)c2n1 [Example 26, N-(4-(((8-(1,3-dimethyl-1H-indazol-5-yl)-2,7-dimethylpyrazolo[1,5-a][1,3,5]triazin-4-yl)amino)meth-yl)phenyl)methane-sulfonamide] | > 6.00 | > 7.00 | > 7.00 | > 7.00 | > 7.00 | > 7.00 | > 6.00 | > 7.00 | > 8.00 | 
COc1ccc(CNc2cc(C)nc3c(-c4ccc5c(c4)c(C)nn5C)c(C)nn23)cn1 [Example 14, 3-(1,3-dimethyl-1H-indazol-5-yl)-N-((6-methoxypyridin-3-yl)methyl)-2,5-dimethylpyrazolo[1,5-a]pyrimidin-7-amine] | > 7.00 | > 8.00 | > 6.00 | > 6.00 | > 8.00 | > 6.00 | > 6.00 | > 7.00 | > 6.00 | > 6.00
COc1ccc(CNc2nc(C)nc3c(-c4ccc5c(c4)c(C)nn5C)c(C)nn23)cn1 [Example 28, 8-(1,3-dimethyl-1H-indazol-5-yl)-N-((6-methoxypyridin-3-yl)methyl)-2,7-dimethylpyrazolo[1,5-a][1,3,5]triazin-4-amine] | > 6.00 | > 7.00 | > 7.00 | > 6.00 | > 7.00 | > 7.00 | > 6.00 | > 7.00 | > 8.00 | 
Cc1ccc(CNc2cc(C)nc3c(-c4ccc5c(c4)c(C)nn5C)c(C)nn23)cn1 [Example 9, 3-(1,3-dimethyl-1H-indazol-5-yl)-2,5-dimethyl-N-((6-methylpyridin-3-yl)methyl)pyrazolo[1,5-a]pyrimidin-7-amine] | > 7.00 | > 7.00 | > 8.00 | > 7.00 | > 8.00 | > 7.00 | > 6.00 | > 7.00 | > 8.00 | > 7.00
COc1ccc(CNc2cc(C)nc3c(-c4ccc5c(c4)c(C)nn5C)c(C)nn23)cc1 [Example 10, 3-(1,3-dimethyl-1H-indazol-5-yl)-N-(4-methoxybenzyl)-2,5-dimethylpyrazolo[1,5-a]pyrimidin-7-amine] | > 6.00 | > 7.00 | > 6.00 | > 6.00 | > 7.00 | > 6.00 | > 6.00 | > 7.00 | > 6.00 | > 7.00
Cc1nc(NCc2ccc(S(C)(=O)=O)cc2)n2nc(C)c(-c3ccc4c(c3)c(C)nn4C)c2n1 [Example 25, 8-(1,3-dimethyl-1H-indazol-5-yl)-2,7-dimethyl-N-(4-(methyl-sulfonyl)benzyl)pyrazolo[1,5-a][1,3,5]triazin-4-amine] | > 9.00 | > 9.00 | > 8.00 | > 8.00 | > 8.00 | > 8.00 | > 8.00 | > 8.00 | > 8.00 | > 8.00
